Key:
[1] = In-vitro cytotoxicity assay, CCK-8 method; format: cell-based; conditions: human, HepG2 cells
Procedure: In-vitro cytotoxicity assay for compound I was performed in HepG2 cells using the CCK-8 method. HepG2 cells (Beina Bio) in the logarithmic growth phase were collected, the concentration of cell suspension was adjusted, and then the cells were plated on a 96-well cell culture plate at 50000 cells/well. The cells were then incubated in a cell incubator (5%, 37° C.) overnight. After 80%-90% cell confluence in the plate was achieved, medium change was performed, and then the test compound at each concentration gradient or vehicle (DMSO) was added. The resulting mixture was incubated in the cell incubator (5%, 37° C.) for 48 h. After the treatment was completed, the medium in the plate was discarded. The plate was washed twice with PBS, and a CCK-8 working solution (Beyotime) was added at 100 μL per well. The resulting mixture was then incubated at 37° C. for 1.5 h in the dark. The absorbance at OD450 nm was measured for each well on a microplate reader, and the CC50 value of each compound was analyzed and calculated.

[2] = Pharmacokinetic study in rats; format: in vivo, SD rats; conditions: male, SD, rat, in vivo, po, 10 mg/kg
Procedure: Compound I, 2-hydroxyethanesulfonate of compound I, ethanesulfonate (crystal form I) of compound I, tartrate of compound I, and sulfate of compound I were each accurately weighed, and the required volume of vehicle was added. The mixture was stirred for 5 min, then sonicated below 25° C. until no large particles were visible to the naked eye, and further stirred for 30 min until a homogeneous suspension was obtained. The suspension was then used for administration.
Male SPF-grade SD rats (Beijing Vital River Laboratory Animal Technology Co., Ltd.) were given compound I, the 2-hydroxyethanesulfonate of compound I, the ethanesulfonate of compound I (crystal form I), the tartrate of compound I, and the sulfate of compound I by single intragastric administration after an acclimation period (with free access to water and food). Blood was collected from the orbital venous plexus of the rats at 0.167 h, 0.5 h, 1 h, 2 h, 3 h, 4 h, 6 h, 9 h, 12 h, and 24 h after administration. Each blood sample was centrifuged at 3500×g for 10 min at 4° C. The supernatant was then collected, and the concentration of compound I in the plasma was measured by LC-MS/MS (AB Sciex TRIPLE QUAD 3500). The data were analyzed using a non-compartmental model in WinNonlin (version 5.2.1 Pharsight, Mountain View, CA) to obtain PK parameters.

ROCK2 kinase = target: T1, ROCK2 kinase (Homo sapiens, UniProt O75116); assay: In-vitro evaluation of ROCK2 kinase activity (HTRF KinEASE-STK); format: biochemical
T1 construct: purchased Invitrogen PV3759
Procedure: ROCK2 activity screening: ROCK2 activity was detected using a 96-well (Cisbio) time-resolved fluorometric assay. The assay for ROCK2 was performed in the following assay buffer: 5 mM MgCl2 (Sigma), 1 mM DTT (Sigma), and 1× kinase buffer. The kinase buffer was used for dilution. 7.5 μL of ROCK2 kinase (Invitrogen, PV3759) was first added to a 96-well microplate to achieve a final concentration of 0.4 ng/μL, and then […] of compound I (DMSO content: 1% (volume fraction)) was added. The mixture was incubated at room temperature for 0.5 h. To start the reaction, the kinase buffer was used to mix ATP (Aladdin) and the substrate STK-substrate 2-biotin. 7.5 μL of the mixed solution was added to the microplate to achieve final concentrations of 6.739 μM and 1 μM. The resulting mixture was incubated at room temperature for another 2 h. 5 mL of detection buffer was mixed with STK antibody-Cryptate, and then an appropriate volume of the mixture was mixed with an equal volume of streptavidin-XL665. 10 μL of the resulting mixture was added to the microplate to stop the reaction. After further incubation for about 1 h, the microplate was read on a Molecular Devices Spectra Max i3x multifunctional microplate reader. […]

ROCK1 kinase = target: T2, ROCK1 kinase (Homo sapiens, UniProt Q13464); assay: In-vitro evaluation of ROCK1 kinase selectivity (HTRF KinEASE-STK); format: biochemical
T2 construct: purchased Invitrogen
Procedure: ROCK1 activity was detected using a 96-well (Cisbio) time-resolved fluorometric assay. The assay for ROCK1 was performed in the following assay buffer: 5 mM MgCl2 (Sigma), 1 mM DTT (Sigma), and 1× kinase buffer. The kinase buffer was used for dilution. 7.5 μL of ROCK1 kinase (Invitrogen) was first added to a 96-well microplate to achieve a final concentration of 0.4 ng/μL, and then 0.25 μL of the compound (DMSO content: 1%) was added. The mixture was incubated at room temperature for 0.5 h. To start the reaction, the kinase buffer was also used to mix ATP (Aladdin) and the substrate STK-substrate 2-biotin. 7.5 μL of the mixed solution was added to the microplate to achieve final concentrations of 3.53 μM and 1 μM. The resulting mixture was incubated at room temperature for another 2 h. 5 mL of detection buffer was mixed with STK antibody-Cryptate, and then an appropriate volume of the mixture was mixed with an equal volume of streptavidin-XL665. 10 μL of the resulting mixture was added to stop the reaction. After further incubation for about 1 h, the microplate was read on a Molecular Devices SpectraMax i3x multifunctional microplate reader. The kinase buffer, the STK-substrate 2-biotin, the detection buffer, the STK antibody-Cryptate, and the streptavidin-XL665 were all from HTRF KinEASE-STK kit (Cisbio, 1000 tests, 61GSTXLA).

[3] = Chemical stability on storage up to 3 months (HPLC purity), Table 13-4; format: physicochemical; conditions: for Purity (%), 230 nm, Month 1 / Purity (%), 230 nm, Month 3: sealed and protected from light
Procedure: B) The HPLC method used for the stability study was as follows:
The vials were sealed with tin foil and then separately placed under the conditions of 40° C. temperature/75% humidity or 25° C. temperature/60% humidity for about 3 months. The samples after being placed for 0 months, 2 weeks, 1 month and 3 months were taken and each dissolved in a diluent to prepare a solution at about 1.0 mg/mL, which was then tested for chemical stability by HPLC analysis using Shimadzu LC-20ADxr.

[4] = as above; format: physicochemical; conditions: 40° C./75% humidity, sealed and protected from light

T1 sequence (O75116 whole entry): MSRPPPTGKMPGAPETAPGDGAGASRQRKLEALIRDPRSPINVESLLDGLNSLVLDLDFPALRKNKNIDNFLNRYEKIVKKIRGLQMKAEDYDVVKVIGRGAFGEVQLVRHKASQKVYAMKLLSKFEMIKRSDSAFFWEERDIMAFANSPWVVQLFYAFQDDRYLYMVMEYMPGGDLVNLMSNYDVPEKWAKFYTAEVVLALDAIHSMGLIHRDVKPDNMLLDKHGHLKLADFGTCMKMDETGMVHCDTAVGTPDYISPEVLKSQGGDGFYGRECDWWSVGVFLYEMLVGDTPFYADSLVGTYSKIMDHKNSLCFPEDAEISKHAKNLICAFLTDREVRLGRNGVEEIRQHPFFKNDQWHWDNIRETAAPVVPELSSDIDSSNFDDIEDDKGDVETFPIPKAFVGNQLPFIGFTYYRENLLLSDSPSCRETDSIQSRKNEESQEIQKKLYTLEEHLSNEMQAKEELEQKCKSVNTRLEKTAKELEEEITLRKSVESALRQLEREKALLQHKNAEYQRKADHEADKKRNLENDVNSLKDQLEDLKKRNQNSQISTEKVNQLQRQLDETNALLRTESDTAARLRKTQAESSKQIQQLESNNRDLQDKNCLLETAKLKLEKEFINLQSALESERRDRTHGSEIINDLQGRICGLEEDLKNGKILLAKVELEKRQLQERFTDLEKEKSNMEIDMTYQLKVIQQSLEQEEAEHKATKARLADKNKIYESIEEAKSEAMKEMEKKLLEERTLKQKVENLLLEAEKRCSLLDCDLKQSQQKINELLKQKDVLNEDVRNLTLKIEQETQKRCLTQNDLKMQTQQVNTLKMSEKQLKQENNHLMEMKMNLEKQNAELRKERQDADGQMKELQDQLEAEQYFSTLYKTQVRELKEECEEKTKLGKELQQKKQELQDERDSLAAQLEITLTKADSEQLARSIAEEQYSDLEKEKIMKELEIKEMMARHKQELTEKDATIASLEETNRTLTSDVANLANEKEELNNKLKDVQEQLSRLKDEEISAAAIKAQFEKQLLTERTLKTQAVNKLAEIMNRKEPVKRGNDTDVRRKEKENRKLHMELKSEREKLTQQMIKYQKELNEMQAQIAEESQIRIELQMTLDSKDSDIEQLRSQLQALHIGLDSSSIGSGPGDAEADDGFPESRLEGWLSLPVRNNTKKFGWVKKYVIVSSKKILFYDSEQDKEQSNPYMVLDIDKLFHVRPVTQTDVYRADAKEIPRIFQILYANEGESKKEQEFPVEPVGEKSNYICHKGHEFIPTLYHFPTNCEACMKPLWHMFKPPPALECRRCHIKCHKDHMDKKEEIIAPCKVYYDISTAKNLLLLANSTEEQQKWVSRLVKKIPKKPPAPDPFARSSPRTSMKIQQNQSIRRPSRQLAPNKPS
T2 sequence (Q13464 whole entry): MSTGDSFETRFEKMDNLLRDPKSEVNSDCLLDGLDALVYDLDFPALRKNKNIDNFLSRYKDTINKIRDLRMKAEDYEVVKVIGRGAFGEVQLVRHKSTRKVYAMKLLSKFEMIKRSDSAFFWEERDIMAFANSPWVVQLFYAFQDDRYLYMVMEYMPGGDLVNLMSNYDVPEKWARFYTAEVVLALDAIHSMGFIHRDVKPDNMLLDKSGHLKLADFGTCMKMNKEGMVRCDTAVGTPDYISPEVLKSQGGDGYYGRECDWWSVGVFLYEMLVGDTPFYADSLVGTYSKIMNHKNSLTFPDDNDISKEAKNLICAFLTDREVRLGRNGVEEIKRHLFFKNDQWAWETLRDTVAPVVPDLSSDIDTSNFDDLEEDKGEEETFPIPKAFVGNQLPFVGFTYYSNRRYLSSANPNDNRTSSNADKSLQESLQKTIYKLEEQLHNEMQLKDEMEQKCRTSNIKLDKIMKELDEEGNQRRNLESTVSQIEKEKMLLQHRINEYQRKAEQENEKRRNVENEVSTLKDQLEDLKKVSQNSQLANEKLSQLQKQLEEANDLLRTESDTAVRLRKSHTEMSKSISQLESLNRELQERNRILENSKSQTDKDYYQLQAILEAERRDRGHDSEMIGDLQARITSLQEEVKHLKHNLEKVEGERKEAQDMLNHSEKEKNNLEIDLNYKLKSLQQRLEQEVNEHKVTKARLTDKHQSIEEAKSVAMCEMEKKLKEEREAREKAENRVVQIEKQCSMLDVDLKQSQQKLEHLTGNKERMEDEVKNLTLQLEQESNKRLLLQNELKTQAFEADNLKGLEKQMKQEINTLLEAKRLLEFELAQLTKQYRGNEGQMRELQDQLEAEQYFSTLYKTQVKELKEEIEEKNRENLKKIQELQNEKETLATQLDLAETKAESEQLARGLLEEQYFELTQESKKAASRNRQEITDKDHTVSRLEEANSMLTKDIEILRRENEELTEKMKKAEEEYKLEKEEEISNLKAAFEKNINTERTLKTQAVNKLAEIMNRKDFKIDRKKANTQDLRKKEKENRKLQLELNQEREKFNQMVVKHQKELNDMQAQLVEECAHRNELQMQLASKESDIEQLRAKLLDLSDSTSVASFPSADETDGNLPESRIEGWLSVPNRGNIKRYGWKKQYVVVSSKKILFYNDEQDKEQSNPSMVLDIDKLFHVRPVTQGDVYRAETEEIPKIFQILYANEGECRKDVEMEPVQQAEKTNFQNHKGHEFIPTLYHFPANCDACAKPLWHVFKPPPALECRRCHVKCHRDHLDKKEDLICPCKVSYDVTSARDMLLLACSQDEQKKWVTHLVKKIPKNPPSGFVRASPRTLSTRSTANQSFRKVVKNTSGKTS

Row | SMILES | CC50 at 48 h [1] [µM] | AUC(0-t) [2] [µg·h/mL] | Cmax [2] [µg/mL] | IC50 (ROCK2 kinase) [µM] | IC50 (ROCK1 kinase) [µM] | stability in chemical properties ([3]; 25° C./60% humidity and 40° C./75% humidity (sealed and protected from light)) | Purity (%), 230 nm, Month 1 ([3]; 25° C./60% humidity) [%] | Purity (%), 230 nm, Month 3 ([3]; 25° C./60% humidity) [%] | Purity (%), 230 nm, Month 1 ([3]; 40° C./75% humidity) [%] | Purity (%), 230 nm, Month 3 ([3]; 40° C./75% humidity) [%] | Purity (%), 230 nm, Day 0 ([3]; Day 0) [%] | Purity (%), 230 nm, Month 2 [4] [%]
1 | Cn1c(C(=O)N2CC(F)(F)C2)cc2c1CN(c1ncc(F)c(Nc3ccc(-c4cn[nH]c4)cc3)n1)CC2 [Compound I, (6-(4-((4-(1H-pyrazol-4-yl)phenyl)amino)-5-fluoropyrimidin-2-yl)-1-methyl-4,5,6,7-tetrahydro-1H-pyrrolo[2,3-c]pyridin-2-yl)(3,3-difluoroazetidin-1-yl)methanone] | > 100 | 2.04 | 0.251 | 0.0365 | > 4.5 | – | – | – | – | – | – | –
2 | Cn1c(C(=O)N2CC(F)(F)C2)cc2c1CN(c1ncc(F)c(Nc3ccc(-c4cn[nH]c4)cc3)n1)CC2.O=C(O)C(O)C(O)C(=O)O [Crystal form I of tartrate] | – | – | – | – | – | substantially stable | 99.00 | 99.02 | 98.95 | 99.04 | 98.98 | 99.18
